# Results from patent publication US8889874B2, “Imidazolone-chalcone derivatives as potential anticancer agent and process for the preparation thereof” (Council of Scientific and Industrial Research, priority 2010, dated 2014).
# Key:
# Assay in all cases: NCI anticancer screen, SRB assay, 48 h
# Format in all cases: cell-based, human
# UACC-62 (melanoma) = tested on: UACC-62 (melanoma)
# Procedure: (§1) Some of biological activity studies were carried out at the National Cancer Institute (NCI), Maryland, USA.
# (§2) The compounds were evaluated for anticancer activity against fifty three human cancer cells derived from nine cancer types (leukemia cell line, non-small-cell lung cell line, colon cell line, CNS cell line, melanoma cell line, ovarian cell line, prostate cell line, and breast cancer cell line) as shown in Table 1. For each compound, dose response curves for each cell line were measured at a minimum of five concentrations at 10 fold dilutions. A protocol of 48 h continuous drug exposure was used and a sulforhodamine B (SRB) protein assay was used to estimate cell viability or growth.
# [1] = tested on: K-562 (leukemia cell line)
# Procedure: as §1, §2
# [2] = tested on: NCI-H460 (non-small cell lung)
# Procedure: as §1, §2
# MALME-3M (melanoma) = conditions: MALME-3M
# Procedure: as §1, §2
# SW-620 (colon) = tested on: SW-620 (colon)
# Procedure: as §1, §2
# COLO 205 (colon) = tested on: COLO 205 (colon)
# Procedure: as §1, §2
# RXF 393 (renal) = tested on: RXF 393 (renal)
# Procedure: as §1, §2
# MCF7 (breast) = tested on: MCF7 (breast)
# Procedure: as §1, §2
# SF-539 (CNS) = tested on: SF-539 (CNS)
# Procedure: as §1, §2
# SF-268 (CNS) = tested on: SF-268 (CNS)
# Procedure: as §1, §2
# HT29 (colon) = tested on: HT29 (colon)
# Procedure: as §1, §2
# SNB-75 (CNS) = tested on: SNB-75 (CNS)
# Procedure: as §1, §2
# M14 (melanoma) = tested on: M14 (melanoma)
# Procedure: as §1, §2
# OVCAR-5 (ovarian) = tested on: OVCAR-5 (ovarian)
# Procedure: as §1, §2
# OVCAR-8 (ovarian) = tested on: OVCAR-8 (ovarian)
# Procedure: as §1, §2
# [3] = tested on: HOP-62 (non-small cell lung)
# Procedure: as §1, §2
# [4] = tested on: NCI-H522 (non-small cell lung)
# Procedure: as §1, §2
# KM12 (colon) = tested on: KM12 (colon)
# Procedure: as §1, §2
# BT-549 (breast) = tested on: BT-549 (breast)
# Procedure: as §1, §2
# HS 578T (breast) = tested on: HS 578T (breast)
# Procedure: as §1, §2
# SK-OV-3 (ovarian) = tested on: SK-OV-3 (ovarian)
# Procedure: as §1, §2
# LOX IMVI (melanoma) = tested on: LOX IMVI (melanoma)
# Procedure: as §1, §2
# UO-31 (renal) = tested on: UO-31 (renal)
# Procedure: as §1, §2
# ACHN (renal) = tested on: ACHN (renal)
# Procedure: as §1, §2
# [5] = tested on: NCI-H23 (non-small cell lung)
# Procedure: as §1, §2
# SF-295 (CNS) = tested on: SF-295 (CNS)
# Procedure: as §1, §2
# OVCAR-3 (ovarian) = tested on: OVCAR-3 (ovarian)
# Procedure: as §1, §2
# MDA-MB-231/ATCC (breast) = tested on: MDA-MB-231/ATCC (breast)
# Procedure: as §1, §2
# SK-MEL-28 (melanoma) = tested on: SK-MEL-28 (melanoma)
# Procedure: as §1, §2
# 786-0 (renal) = tested on: 786-0 (renal)
# Procedure: as §1, §2
# A498 (renal) = tested on: A498 (renal)
# Procedure: as §1, §2
# [6] = tested on: EKVX (non-small cell lung)
# Procedure: as §1, §2
# [7] = tested on: NCI-H322M (non-small cell lung)
# Procedure: as §1, §2
# SK-MEL-2 (melanoma) = tested on: SK-MEL-2 (melanoma)
# Procedure: as §1, §2
# [8] = 48 h exposure, SRB, read-out: GI50
structure (smiles),measurement,setting,value
"COc1cc(/C=C/C(=O)c2cccc(-n3cc(-c4ccc(Cl)cc4)[nH]c3=O)c2)cc(OC)c1OC [5f, 4-(4-chlorophenyl)-1-3-[(E)-3-(3,4,5-trimethoxyphenyl)-2-propenoyl]phenyl-2,3-dihydro-1H-2-imidazolone]",pGI50 (-log of molar concentration causing 50% inhibition of net cell growth),UACC-62 (melanoma),5.05
same,GI50,UACC-62 (melanoma); [8],8.88 µM
same,pGI50 (-log of molar concentration causing 50% inhibition of net cell growth),[1],5.43
same,GI50,[1]; [8],3.69 µM
same,pGI50 (-log of molar concentration causing 50% inhibition of net cell growth),[2],5.43
same,GI50,[2]; [8],3.74 µM
same,pGI50 (-log of molar concentration causing 50% inhibition of net cell growth),MALME-3M (melanoma),4.74
same,GI50,MALME-3M (melanoma); [8],18.1 µM
same,pGI50 (-log of molar concentration causing 50% inhibition of net cell growth),SW-620 (colon),5.76
same,GI50,SW-620 (colon); [8],1750 nM
same,pGI50 (-log of molar concentration causing 50% inhibition of net cell growth),COLO 205 (colon); COLO205,5.13
same,GI50,"COLO 205 (colon); COLO 205, 48 h exposure, SRB, read-out: GI50",7.38 µM
same,GI50,"RXF 393 (renal); RXF 393, 48 h exposure, SRB, read-out: GI50",3.22 µM
same,pGI50 (-log of molar concentration causing 50% inhibition of net cell growth),RXF 393 (renal); RXF-393,5.49
same,pGI50 (-log of molar concentration causing 50% inhibition of net cell growth),MCF7 (breast),5.76
same,GI50,MCF7 (breast); [8],1740 nM
same,pGI50 (-log of molar concentration causing 50% inhibition of net cell growth),SF-539 (CNS),5.46
same,GI50,SF-539 (CNS); [8],3.49 µM
same,pGI50 (-log of molar concentration causing 50% inhibition of net cell growth),SF-268 (CNS),5.29
same,GI50,SF-268 (CNS); [8],5.07 µM
same,pGI50 (-log of molar concentration causing 50% inhibition of net cell growth),HT29 (colon),5.70
same,GI50,HT29 (colon); [8],2000 nM
same,pGI50 (-log of molar concentration causing 50% inhibition of net cell growth),SNB-75 (CNS),4.69
same,pGI50 (-log of molar concentration causing 50% inhibition of net cell growth),M14 (melanoma),5.36
same,GI50,M14 (melanoma); [8],4.36 µM
same,pGI50 (-log of molar concentration causing 50% inhibition of net cell growth),OVCAR-5 (ovarian),5.51
same,GI50,OVCAR-5 (ovarian); [8],3.11 µM
same,pGI50 (-log of molar concentration causing 50% inhibition of net cell growth),OVCAR-8 (ovarian),5.41
same,GI50,OVCAR-8 (ovarian); [8],3.85 µM
same,pGI50 (-log of molar concentration causing 50% inhibition of net cell growth),[3],4.63
same,pGI50 (-log of molar concentration causing 50% inhibition of net cell growth),[4],5.39
same,GI50,[4]; [8],4.1 µM
same,pGI50 (-log of molar concentration causing 50% inhibition of net cell growth),KM12 (colon),5.26
same,GI50,KM12 (colon); [8],5.45 µM
same,pGI50 (-log of molar concentration causing 50% inhibition of net cell growth),BT-549 (breast),4.91
same,GI50,BT-549 (breast); [8],12.3 µM
same,pGI50 (-log of molar concentration causing 50% inhibition of net cell growth),HS 578T (breast),5.22
same,GI50,HS 578T (breast); [8],5.96 µM
same,pGI50 (-log of molar concentration causing 50% inhibition of net cell growth),SK-OV-3 (ovarian),4.50
same,GI50,SK-OV-3 (ovarian); [8],31.4 µM
same,pGI50 (-log of molar concentration causing 50% inhibition of net cell growth),LOX IMVI (melanoma),5.76
same,GI50,LOX IMVI (melanoma); [8],1720 nM
same,pGI50 (-log of molar concentration causing 50% inhibition of net cell growth),UO-31 (renal),5.15
same,GI50,UO-31 (renal); [8],7.03 µM
same,pGI50 (-log of molar concentration causing 50% inhibition of net cell growth),ACHN (renal),5.14
same,GI50,ACHN (renal); [8],7.17 µM
same,pGI50 (-log of molar concentration causing 50% inhibition of net cell growth),[5],5.45
same,GI50,[5]; [8],3.56 µM
same,pGI50 (-log of molar concentration causing 50% inhibition of net cell growth),SF-295 (CNS),4.61
same,GI50,SF-295 (CNS); [8],24.3 µM
same,pGI50 (-log of molar concentration causing 50% inhibition of net cell growth),OVCAR-3 (ovarian),5.61
same,GI50,OVCAR-3 (ovarian); [8],2400 nM
same,pGI50 (-log of molar concentration causing 50% inhibition of net cell growth),MDA-MB-231/ATCC (breast),4.86
same,GI50,MDA-MB-231/ATCC (breast); [8],13.8 µM
same,pGI50 (-log of molar concentration causing 50% inhibition of net cell growth),SK-MEL-28 (melanoma),4.96
same,GI50,SK-MEL-28 (melanoma); [8],10.9 µM
same,pGI50 (-log of molar concentration causing 50% inhibition of net cell growth),786-0 (renal),5.67
same,GI50,786-0 (renal); [8],2140 nM
same,pGI50 (-log of molar concentration causing 50% inhibition of net cell growth),A498 (renal),4.52
same,GI50,A498 (renal); [8],30.2 µM
same,pGI50 (-log of molar concentration causing 50% inhibition of net cell growth),[6],4.62
same,pGI50 (-log of molar concentration causing 50% inhibition of net cell growth),[7],4.89
same,GI50,[7]; [8],12.9 µM
same,pGI50 (-log of molar concentration causing 50% inhibition of net cell growth),SK-MEL-2 (melanoma),5.46
same,GI50,SK-MEL-2 (melanoma); [8],3.44 µM
